The values that follow come from article PMC12990037, “Discovery of Two Structurally Distinct Classes of Inhibitors Targeting the Nuclease MUS81 and Enhancing Efficacy of Chemotherapy in Cancer Cells” (Journal of Medicinal Chemistry, 2026).

Common to all, as to type: cell-based
Experiment [1] deals with U2OS, HEK293, and CAL51. As to the kind of experiment: Cell proliferation assay (CyQUANT), combination with cisplatin. To be noted: cotreatment with cisplatin, 5 days. The method, then:
7 MUS81 inhibitors synergize with cisplatin to reduce cancer cell viability. (A,B) U2OS cells were treated with DMSO, MU262, or MU876 at the indicated concentrations in combination with a range of cisplatin (0–5 μM) for 96–120 h. Cell viability was assessed by the Cy-Quant assay. The survival was normalized to the DMSO-treated control. Graphs were generated in Graphpad Prism using the nonlinear regression fitting model. n ≥ 3, error bars represent s.d. (C) CAL51 WT cells were treated with DMSO, MU262, or MU876 at the indicated concentrations at each passage over 2 weeks. Cisplatin (12 μM) was added for the last 24 h before harvest. DNA damage was assessed by quantifying γH2AX foci using fluorescence microscopy and CellProfiller software. Data were visualized plotted in R software. Red markers represent the median of γH2AX foci number per nucleus; blue markers represent the percentage of cells with ≥20 γH2AX foci per nucleus. n = 3, error bars represent s.d.; ****p <0.0001 (unpaired, two-tailed t-test). TEXT PRINTED IN THE PICTURE: (C) D: γH2AX foci: 2.4 (DMSO); γH2AX foci: 59.6 (Cisplatin) | (C) MU262: γH2AX foci: 2.3 (1 μM; DMSO); γH2AX foci: 3 (2 μM; DMSO); γH2AX foci: 55.4 (1 μM; Cisplatin); γH2AX foci: 43.2 (2 μM; Cisplatin) | (C) MU876: γH2AX foci: 2.8 (0.25 μM; DMSO); γH2AX foci: 0.9 (0.5 μM; DMSO); γH2AX foci: 48.2 (0.25 μM; Cisplatin); γH2AX foci: 42.6 (0.5 μM; Cisplatin) DOUBTS OF THE COPYIST ABOUT THIS PICTURE: Panel C: the numbers in the blue markers have no measure or unit of their own printed in the picture; the axis title 'γH2AX foci' is given as the measure, but the numbers may stand for another quantity. / Panel C: 'D' is a control column with no concentration; it may not count as a substance. / Panel C: small white print on blue markers; 59.6, 55.4, 48.2, 43.2, 42.6, 2.8 and 0.9 are best readings (3, 5, 6, 8 and 9 are hard to tell apart).
CAL51 WT, CAL51 MUS81^–/–, U2OS, and HEK293 cells were seeded in a 96-well plate and treated with the respective concentration of selected inhibitors. […]

For experiment [2], the system named is HeLa cells. As to the kind of experiment: Detection of TFEs by FISH on metaphase spreads. Particulars: 48 h. The method, then:
(§1) 5 Small-molecule inhibitors of MUS81 mimic the effect of siRNA-mediated MUS81 depletion in cells. (A) U2OS cells were treated with DMSO, MUS81-targeting siRNA, MU262, MU876, or their respective control analogues for 48 h. Cytochalasin B (1.25 μg/mL) was added 16 h before harvest to prevent cytokinesis. […] (B) Representative images corresponding to the selected conditions from (A). (C) U2OS and (D) HeLa cells were incubated with DMSO, the indicated inhibitors, and their respective control analogues for 48 h. Nocodazole (200 ng/mL) was added for 5 h prior to the end of treatment to arrest cells in mitosis. Mitotic cells were collected by shake-off, and telomere fragility events (TFEs) were quantified manually for each metaphase spread. At least 70 metaphase spreads were quantified per condition. n = 3; error bars represent s.d.; ***p < 0.001, ****p < 0.0001 (ordinary One-way ANOVA).
(§2) U2OS and HeLa cells were seeded in 10 cm dishes. The next day, the medium was changed, and compounds were added at desired concentrations. This process was repeated after 43 h except that compounds were added together with 200 ng/mL of nocodazole. Cells were collected 5 h later by shake-off and incubated in 75 mM KCl at 37 °C for 10 min. Chromosomes were fixed in ice-cold methanol/acetic acid (3:1) and spread on glass slides. Slides were then treated with 20 μg/mL RNase A (Sigma-Aldrich), in 1x PBS at 37 °C for 1 h, fixed in 4% formaldehyde (Sigma-Aldrich) in 1x PBS for 2 min, and treated with 70 μg/mL pepsin (Sigma-Aldrich) in 2 mM glycine, pH 2 (Sigma-Aldrich) at 37 °C for 5 min. Slides were fixed again with 4% formaldehyde in 1x PBS for 2 min, incubated subsequently in 70%, 90%, and 100% ethanol for 5 min each, and air-dried. A C-rich telomeric PNA probe (5′-AF568-OO-p4[…]-3′; Panagene) diluted in hybridization solution (10 mM Tris–HCl pH 7.2, 70% formamide, 0.5% blocking solution (Roche)) was applied onto the slides followed by incubation at 80 °C for 5 min and at room temperature for 2 h. Slides were washed twice in 10 mM Tris–HCl pH 7.2, 70% formamide, and 0.1% BSA and three times in 100 mM Tris–HCl pH 7.2, 150 mM NaCl, and 0.08% Tween-20 at room temperature for 10 min each. DNA was counterstained with 100 ng/mL DAPI (Sigma-Aldrich) in 1x PBS and slides were mounted in Vectashield (Vector Labs). Images were acquired with a Zeiss Cell Observer equipped with a cooled Axiocam 506 m camera and a 63X/1.4NA oil DIC M27 PlanApo N objective. Image analysis was performed using ImageJ and Photoshop software (Adobe Inc.).

For experiment [3], the system named is ALT-positive U2OS cells. As to the kind of experiment: Detection of TFEs by FISH on metaphase spreads. To be noted: 48 h. Here is the method:
as §1, §2

For the compound `CCc1nn2c(O)c(-c3nc4ccccc4[nH]3)nnc2c1-c1ccc(F)cc1` [Compound 18, 3-(1H-Benzo[d]imidazole-2-yl)-7-ethyl-8-(4-fluorophenyl)pyrazolo[5,1-c][1,2,4]triazin-4-ol], the “enhancement of cisplatin-induced decrease of viability” value in experiment [1] was “further enhanced by cotreatment with both MUS81 inhibitors in a dose-dependent manner”. The “telomere-free ends (TFEs)” value was “but not in telomerase-positive and ALT-negative HeLa cells” in experiment [2]; “significantly increased the presence of telomere-free ends (TFEs)” in experiment [3].

Turning to `Cc1cc(=O)[nH]c(-n2nc(-c3ccccc3)cc2NC(=O)c2cc(-c3ccccc3)on2)n1` [Compound 32, N-(1-(4-Methyl-6-oxo-1,6-dihydropyrimidin-2-yl)-3-phenyl-1H-pyrazol-5-yl)-5-phenylisoxazole-3-carboxamide], the “enhancement of cisplatin-induced decrease of viability” value in experiment [1] is “further enhanced by cotreatment with both MUS81 inhibitors in a dose-dependent manner”. Further, the “telomere-free ends (TFEs)” value in experiment [2] was “but not in telomerase-positive and ALT-negative HeLa cells”; in experiment [3], “significantly increased the presence of telomere-free ends (TFEs)”.
